The source of these data is patent publication US20160316732A1, “CONTROL AND CHARACTERIZATION OF PSYCHOTIC STATES” (priority 2010, published 2016).

Experiment [1] concerns layer V pyramidal neurons. As to the kind of experiment: Responses of layer V pyramidal neurons to hyperpolarizing/depolarizing current pulses (activity-dependent depolarization). Format: cell-based, Thy1::ChR2 transgenic mice. The following applies: for cells in which the activity-dependent depolarization and related phenomena were elicited: 5 μM (−) Quinpirole or 10 μM quinpirole, pooled; for effect on PCP-elicited activity-dependent depolarization and afterdepolarization: n=2 cells. As for the experimental part:
Electrophysiological recordings monitored the cellular responses of the layer V pyramidal neurons to in vitro light stimulation when under the pharmacological conditions or treatments.
Brain slices isolated from Thy1::ChR2 transgenic mice underwent direct current stimulation and a layer V pyramidal neuron was monitored by electrophysiological recordings for cellular responses to depolarizing current pulses in the absence or presence of 5 μM PCP.

The test system of experiment [2] is layer V pyramidal neurons. As to the kind of experiment: Responses of layer V pyramidal neurons to light flashes (ChR2 stimulation) in prefrontal slices. Format: cell-based, Thy1::ChR2 transgenic mice.
The test system of experiment [3] is mice. Put plainly: Social exploration / social behavior in mice. Type of experiment: in vivo. The following applies: PCP 5 mg/kg alone; FIG. 4C bottom.
For experiment [4], the system named is layer V pyramidal neurons. As to the kind of experiment: Responses of layer V pyramidal neurons to light flashes (ChR2 stimulation) in prefrontal slices. The following applies: for spiking in response to ChR2 stimulation: p<0.001 vs control; for spikes at short interspike intervals: quinpirole, or haloperidol or sulpiride, FIG. 2E, n=4 cells per group. Type of experiment: cell-based, Thy1::ChR2 transgenic mice. On the procedure:
We used prefrontal slices from Thy1::ChR2 mice to study network activity evoked by light. Brain slices isolated from Thy1::ChR2 transgenic mice underwent in vitro light stimulation and a layer V pyramidal neuron was monitored by electrophysiological recordings for cellular responses to trains of light flashes (470 nm, 1 msec) in the absence of a D2 agonist (control) or presence a D2 agonist (20 μM quinpirole). The brain slice was subsequently washed to remove the quinpirole and treated with either 0.2-2 μM haloperidol or 5 μM sulpiride, both of which are known D2 antagonists. The spike rate of the layer V pyramidal neurons and the amount of information transmitted by the spike rate was quantified as well as the number of spikes as a function of interspike interval.

Experiment [5] relates to layer V pyramidal neurons. As to the kind of experiment: Whole-cell voltage-clamp of ion channel currents mediating the activity-dependent depolarization. Type of experiment: cell-based, mice. The source says:
We next sought to identify possible ion channel currents mediating the activity-dependent depolarization, in whole-cell voltage-clamp.

Setting [6] is: cells with prominent sag and rebound afterdepolarization.
Setting [7] is: haloperidol (0.2-2 μM) or sulpiride (5 μM), pooled group.
Setting [8] is: haloperidol (0.2-2 μM) or sulpiride (5 μM), pooled group, p<0.01 vs control.

The structures appear in SMILES notation.

Take `CCCN1CCC[C@@H]2Cc3n[nH]cc3C[C@H]21` [(−) Quinpirole]: the “cells in which the activity-dependent depolarization and related phenomena were elicited” value in experiment [1] (setting [6]) is given as 8/10.
Consider `c1ccc(C2(N3CCCCC3)CCCCC2)cc1` [PCP, phencyclidine], for which the “response to depolarizing current pulses” value in experiment [1] (PCP 5 μM, FIG. 4A) was “exhibits an afterdepolarization and persistent firing”. Besides, the “cells with activity-dependent depolarization and afterdepolarization outlasting direct stimulation” value in experiment [1] (PCP 5 μM, all layer V pyramidal neurons recorded) is reported as 6/12. In addition, the “cells with activity-dependent depolarization” value in experiment [1] (PCP 5 μM, neurons with prominent sag and rebound afterdepolarization) was 6/9; in experiment [1] (PCP 5 μM, neurons without prominent sag and rebound afterdepolarization), 0/3. Also, the “wide action potentials (possible dendritic Ca2+ spikes)” value in experiment [1] (PCP, FIG. 4A) is “in some cases found to elicit wide action potentials”. The “spiking at short interspike intervals during trains of light pulses” value in experiment [2] (PCP, Thy1::ChR2 cortical slices) is on record as “suppressed spiking at short interspike intervals”. Besides, the social exploration entry in experiment [3] is “impairs social exploration”.
In the case of `O=C(CCCN1CCC(O)(c2ccc(Cl)cc2)CC1)c1ccc(F)cc1` [haloperidol], in experiment [1] (haloperidol 0.2-2 μM, n=3), the “effect on activity-dependent depolarization present in control conditions (before quinpirole)” value is given as “convert bistability into a more modest afterdepolarization, or block the activity dependent depolarization altogether”. Also, in experiment [1] (haloperidol 0.2-10 μM), the “block of the quinpirole activity-dependent depolarization” value was 9/9. Also, in experiment [4] (haloperidol 1 μM, FIG. 2B), the “quinpirole-elicited prolonged depolarization after washing out quinpirole” value is listed as “abolished”. Besides, in experiment [4] (setting [7]), the “spiking in response to ChR2 stimulation” value is on record as “least”. Also, the “amount of information the spike rate transmitted about the rate of light flashes” value (“amount” for short) in experiment [4] (setting [8]) is reported as “lowest”. Also, the “spikes at short interspike intervals” value in experiment [4] is given as “loss of spikes at short interspike intervals”. The “reversal of quinpirole-elicited prolonged depolarization” value in experiment [2] (0.2-10 μM haloperidol, washout of quinpirole and simultaneous application) was 9/9.
Turning to `CCCN1CCC[C@@H]2Cc3n[nH]cc3C[C@H]21` [quinpirole], in experiment [5] (quinpirole 20 μM), the “current at −30 mV after a series of 1 msec steps to 0 mV” value is given as “elicited a slowly activating depolarizing current”. Moreover, the “tail current at −60 mV after a series of 1 msec steps to 0 mV” value in experiment [5] (quinpirole 20 μM) is “increased a rapidly inactivating tail current”. In addition, the “cells in which the activity-dependent depolarization and related phenomena were elicited” value in experiment [1] (setting [6]) is given as 8/10. For the same molecule, the “cells exhibiting the activity-dependent depolarization” value in experiment [1] (20 μM quinpirole, cells with prominent sag and rebound afterdepolarization) is listed as 16/17; in experiment [1] (quinpirole, cells without prominent sag and rebound afterdepolarization), 0/9; in experiment [1] (quinpirole, neurons strongly expressing ChR2), 14/18. Moreover, the “cells with bistability having peaks in power spectra between 20 and 40 Hz” value in experiment [1] (quinpirole, FIG. 3F) is given as 4/6. The “layer V pyramidal neurons with prolonged depolarization outlasting direct stimulation after high-frequency spiking” value in experiment [4] (quinpirole 20 μM, all layer V pyramidal neurons recorded) is on record as 16/26. In addition, the “amount” value in experiment [4] (quinpirole 20 μM, compared with control, p<0.05) is given as “intermediate”. In addition, the “change in responses to trains of light flashes” value in experiment [4] (quinpirole 20 μM, light flashes 470 nm, 1 msec) is reported as “marked change in the responses”. In addition, the “spike afterhyperpolarization (AHP)” value in experiment [4] (quinpirole 20 μM, single 1 msec light flash, FIG. 2F) is recorded as “enhanced the spike afterhyperpolarization”. Further, the “spikes at short interspike intervals” value in experiment [4] was “loss of spikes at short interspike intervals”. Besides, in experiment [4] (quinpirole, p<0.01 vs control), the “spike rate in response to ChR2 stimulation” value is on record as “lower spike rates”.
Take `CCN1CCCC1CNC(=O)c1cc(S(N)(=O)=O)ccc1OC` (stereo not shown) [sulpiride]: the “effect on quinpirole-elicited currents at −30 mV and −60 mV” value in experiment [5] (sulpiride 5 μM) is on record as “blocked”. Moreover, the “block of the quinpirole activity-dependent depolarization” value in experiment [1] (sulpiride 5 μM) is reported as 2/2. The “effect on PCP-elicited activity-dependent depolarization and afterdepolarization” value in experiment [1] (sulpiride 5 μM, PCP 5 μM) is recorded as “not blocked”; in experiment [1] (sulpiride 5 μM, PCP 5 μM, listed as sulphide), “not reversed”. Also, the “spiking in response to ChR2 stimulation” value in experiment [4] (setting [7]) is “least”. Further, in experiment [4] (setting [8]), the “amount” value is “lowest”. Besides, in experiment [4] (quinpirole + sulpiride 5 μM, FIG. 2F), the action potential width entry was “widened action potentials”. For the same molecule, the “spikes at short interspike intervals” value in experiment [4] was “loss of spikes at short interspike intervals”. For the same molecule, the “reversal of quinpirole-elicited prolonged depolarization” value in experiment [2] (5 μM sulpiride, simultaneous application with quinpirole) was 2/2.
